The target in one data set is N588E-hERG (Homo sapiens, UniProt Q12809, N588E). The procedure:
(§1) CHO cells were cultured in D-ME/F12 with 10% FBS and maintained at 37° C. in 5% CO2. Cells were studied at least 24 h after being plated on microscope coverslips. Mutant hERG constructs were generated using the Megaprimer PCR method. […] Blank CHO cells were plated onto sterilised glass coverslips. After 24 h, the cells were transfected with mutant hERG constructs using PolyFect Transfection Reagent (Qiagen) according to the manufacturer's instructions. After transfection, the cells were incubated at 37° C. for a minimum of 1 day prior to electrophysiological study. Successfully transfected cells, identified by the expression of eGFP, were studied using the whole-cell configuration of the patch clamp technique.
(§2) Borosilicate glass tubing patch pipettes, with resistances of 1-4 MΩ when filled with internal solution, were made using a vertical 2-stage puller (PP-830; Narishige, Japan). The internal solution contained (in mM) 120 potassium gluconate, 20 KCl, 1.5 MgATP, 5 EGTA and 10 HEPES (pH 7.3 with KOH). […] Currents were amplified (Axopatch 200B amplifier; Molecular Devices, Sunnyvale, Calif.) and digitised (DigiData 1200; Molecular Devices) before storage on a personal computer. Capacitance current transients were electronically subtracted, and series resistance compensation was ˜80% for all experiments. Current signals were digitised at 5 kHz and low-pass filtered at 2 KHz. Some current traces were leak-subtracted off-line. Acquisition was performed using pClamp software.
(§3) Currents were measured with a two-step voltage protocol; a first step to +20 mV for 3 seconds to fully activate the channels and a second step to a negative membrane potential, usually −110 mV (but see below for variations). During this second voltage step hERG channels quickly recover from inactivation and proceed to deactivate.
(§4) Drug block was calculated as I[drug]/Icontrol, with all currents measured at the end of the activating step. […] In this way current was measured at the same time point for all cells.
(§5) Voltage-protocols were repeated at 0.1 Hz. Control currents were recorded 3-5 minutes after patch rupture, i.e. the time take for current levels to stabilise at a steady state level. […] Recording continued until a new steady state block was reached (typically 2-4 minutes). Between 2 and 4 doses of drug were applied to each cell with most experiments completed within 20 minutes.
(§6) Initial data analysis was performed using the Clampfit module of the pClamp 9.0 software. Subsequent data analysis and preparation of data for figures were performed with Mathematica 6 (Wolfram Technologies). All data are expressed as mean ±SEM (n) and statistical significance (P<0.05) was determined using paired t-tests.

In another data set the target is WT-hERG (Homo sapiens, UniProt Q12809). Here is the method: as §1, §2, §3, §4, §5, §6
The target in another data set is N588K-hERG (Homo sapiens, UniProt Q12809, N588K).

Each structure is given as a SMILES string. Like-named read-outs stand apart in the source and are kept apart here.

As a reminder, the IC50 is the concentration that gives 50% inhibition.

On to `COc1cc(N)c(Cl)cc1C(=O)NC1CCN(CCCOc2ccc(F)cc2)CC1OC` (stereo not drawn) [Cisapride], for which, on N588E-hERG (human), the “h (Hill plot), N588E” value is recorded as “h = 0.8”. The “h (Hill plot), WT-hERG” value at WT-hERG (human) is recorded as “h = 1.0”.

At N588K-hERG, `CC(C)NCC(O)c1ccc(NS(C)(=O)=O)cc1` (racemic) [dl-Sotalol] yielded an IC50 of 1390 ± 266 µM. For the same compound, at N588E-hERG, the midpoint of inhibition, the IC50, lay at 586 ± 179 µM and the “h (Hill plot), N588E” value is on record as “h = 0.8”. On WT-hERG, the 50% inhibitory concentration (IC50) is 516 ± 35.5 µM and the “h (Hill plot), WT-hERG” value is “h = 0.9”.

`C1CCC(C(CC2CCCCN2)C2CCCCC2)CC1` (stereo not drawn) [Perhexiline]: the “h (Hill plot), N588E” value at N588E-hERG (human) was “h = 0.8”. Moreover, the “h (Hill plot), WT-hERG” value on WT-hERG (human) is given as “h = 1.1”.

(Values after patent US20110151484A1, “hERG MUTANTS AND USES THEREOF” (priority 2008, published 2011).)
